According to ChEMBL document CHEMBL1201862, “PubChem BioAssay data set” (2004):
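Step 1: Grow cells in 96-well plates. Step 2: Expose to compound for 48 hours at 5 concentrations. Step 3: Interpolate endpoints linearly; if unreached, use highest concentration. GI50 = concentration required for 50% inhibition of growth.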 Calls of active or inactive are those of the source. Cut-off read from the data, not from the text of the source: active = GI50 up to about 1.1 µM and inactive = higher.

Experiments:
Experiment in all cases: NCI anticancer screen, dose series, 48 h
786-0 = test system: 786-0
A498 = test system: A498
A549 = test system: A549
ACHN = test system: ACHN
BT-549 = test system: BT-549
CAKI-1 = test system: CAKI-1
CCRF-CEM = test system: CCRF-CEM
COLO 205 = test system: COLO 205
EKVX = test system: EKVX
HCC 2998 = test system: HCC 2998
HCT-116 = test system: HCT-116
HCT-15 = test system: HCT-15
HL-60 = test system: HL-60
HOP-62 = test system: HOP-62
HOP-92 = test system: HOP-92
HT-29 = test system: HT-29
IGROV-1 = test system: IGROV-1
K562 = test system: K562
KM12 = test system: KM12
LOX IMVI = test system: LOX IMVI
M14 = test system: M14
MCF7 = test system: MCF7
MDA-MB-231 = test system: MDA-MB-231
MDA-MB-435 = test system: MDA-MB-435
MDA-N = test system: MDA-N
MOLT-4 = test system: MOLT-4
Malme-3M = test system: Malme-3M
NCI-H226 = test system: NCI-H226
NCI-H23 = test system: NCI-H23
NCI-H522 = test system: NCI-H522
NCI/ADR-RES = test system: NCI/ADR-RES
OVCAR-3 = test system: OVCAR-3
OVCAR-4 = test system: OVCAR-4
OVCAR-5 = test system: OVCAR-5
OVCAR-8 = test system: OVCAR-8
PC-3 = test system: PC-3
RPMI-8226 = test system: RPMI-8226
SF-295 = test system: SF-295
SF-539 = test system: SF-539
SK-MEL-28 = test system: SK-MEL-28
SK-MEL-2 = test system: SK-MEL-2
SK-MEL-5 = test system: SK-MEL-5
SK-OV-3 = test system: SK-OV-3
SN12C = test system: SN12C
SNB-19 = test system: SNB-19
SNB-75 = test system: SNB-75
SR = test system: SR
SW-620 = test system: SW-620
T47D = test system: T47D
TK-10 = test system: TK-10
U-251 = test system: U-251
UACC-257 = test system: UACC-257
UACC-62 = test system: UACC-62
UO-31 = test system: UO-31

## COc1ccccc1NCc1cccc2c(=O)c3ccc(Cl)cc3oc12
786-0
  GI50: > 100 µM (inactive)
A498
  GI50: > 100 µM (inactive)
A549
  GI50: 78.3 µM (inactive)
ACHN
  GI50: > 100 µM (inactive)
BT-549
  GI50: > 100 µM (inactive)
CAKI-1
  GI50: > 100 µM (inactive)
CCRF-CEM
  GI50: 48 µM (inactive)
COLO 205
  GI50: 56.9 µM (inactive)
EKVX
  GI50: > 100 µM (inactive)
HCC 2998
  GI50: > 100 µM (inactive)
HCT-116
  GI50: > 100 µM (inactive)
HCT-15
  GI50: > 100 µM
HL-60
  GI50: 22.9 µM (inactive)
HOP-62
  GI50: > 100 µM (inactive)
HOP-92
  GI50: 25.7 µM (inactive)
HT-29
  GI50: 46.6 µM (inactive)
IGROV-1
  GI50: 56 µM (inactive)
K562
  GI50: 47.1 µM (inactive)
KM12
  GI50: 40.1 µM (inactive)
LOX IMVI
  GI50: > 100 µM (inactive)
M14
  GI50: > 100 µM (inactive)
MCF7
  GI50: 28.1 µM (inactive)
MDA-MB-231
  GI50: > 100 µM (inactive)
MDA-MB-435
  GI50: 65 µM (inactive)
MDA-N
  GI50: 93.8 µM (inactive)
MOLT-4
  GI50: > 100 µM (inactive)
Malme-3M
  GI50: 34.7 µM (inactive)
NCI-H226
  GI50: > 100 µM (inactive)
NCI-H23
  GI50: 59.3 µM (inactive)
NCI-H522
  GI50: > 100 µM (inactive)
NCI/ADR-RES
  GI50: > 100 µM (inactive)
OVCAR-3
  GI50: 35.8 µM (inactive)
OVCAR-4
  GI50: > 100 µM (inactive)
OVCAR-5
  GI50: > 100 µM (inactive)
OVCAR-8
  GI50: > 100 µM (inactive)
PC-3
  GI50: 58.7 µM (inactive)
RPMI-8226
  GI50: 39.3 µM (inactive)
SF-295
  GI50: > 100 µM (inactive)
SF-539
  GI50: 65.2 µM (inactive)
SK-MEL-28
  GI50: > 100 µM (inactive)
SK-MEL-2
  GI50: 49.1 µM (inactive)
SK-MEL-5
  GI50: > 100 µM (inactive)
SK-OV-3
  GI50: > 100 µM (inactive)
SN12C
  GI50: > 100 µM (inactive)
SNB-19
  GI50: 92.7 µM (inactive)
SNB-75
  GI50: 28 µM (inactive)
SR
  GI50: 83.4 µM (inactive)
SW-620
  GI50: 76.9 µM (inactive)
T47D
  GI50: > 100 µM (inactive)
TK-10
  GI50: > 100 µM (inactive)
U-251
  GI50: 33.5 µM (inactive)
UACC-257
  GI50: 60.5 µM (inactive)
UACC-62
  GI50: > 100 µM (inactive)
UO-31
  GI50: 95.9 µM (inactive)
